Results on two compounds are retold here after US10881645B2, “Methods for controlling blood pressure and reducing dyspnea in heart failure” (Chiesi Farmaceutici S.p.A., priority 2012, dated 2021).

Structures are written as SMILES.

Data set [1] concerns AHF patients with SBP of ≥160 mmHg. Briefly: Randomized open label 13-center trial: blood pressure control, clevidipine vs standard of care. The data set is classed as in vivo, human. As to the method:
(§1) A randomized open label 13-center trial enrolled AHF patients with SBP of ≥160 mmHg, sitting dyspnea score ≥50 on a 100 mm VAS, and a physician's clinical diagnosis of AHF with pulmonary congestion by chest auscultation.
(§2) If the target blood pressure range was not reached within 30 minutes, or not maintained thereafter, alternative antihypertensive agents were allowed per physician discretion, with or without continuation of the study drug.
(§3) Two populations were analyzed. The “safety” population included all patients receiving any study drug, and was used for all safety analyses.

Data set [2] shares this test system. Briefly: Safety analyses of the AHF trial (hypotension, adverse events, deaths). As to the method: as §1, §2, §3
Historical ejection fraction data was recorded when available.

For data set [3] the test system is unchanged. The data set can be described thus: Dyspnea assessment by 100 mm VAS, VMAC scale and PDA. The data set is classed as in vivo, human. The procedure: Dyspnea was assessed by a 100 mm VAS, in which a score of 0 was “no dyspnea” and a score of 100 represented “worst possible dyspnea.” Dyspnea was evaluated immediately prior to study drug administration, and at 15, 30, 45, 60, 120, 360 and 720 minutes afterward. In addition, the Vasodilation in the Management of Acute Congestive Heart Failure (VMAC) scale, a relative 7 point Likert score, and the Provocative Dyspnea Assessment (PDA) (Pang et al, Eur Heart J2008, 29) were both performed in the seated and supine positions and recorded.

The conditions of data set [4]: in vivo; cited from earlier work.
The mark [5] stands for this setting: AHF population, 30-minute target SBP range.

For `CCCC(=O)OCOC(=O)C1=C(C)NC(C)=C(C(=O)OC)C1c1cccc(Cl)c1Cl` (stereo not drawn) [clevidipine], in data set [1] (setting [5]), the “Target blood pressure range achieved, % of patients” value came out at 70.5% and the “Target blood pressure range achieved, patients/total” value is on record as 31/44. Also, in data set [1] (in vivo), the “AUC above the target blood pressure, median” value is reported as 327 mmHg×min/h; the “AUC below the target blood pressure, median” value worked out at 0 mmHg×min/h; the “AUC outside the target blood pressure, median” value amounted to 379 mmHg×min/h; the “Patients requiring additional antihypertensives” value is 15.9%. Also, the “Rate of being within, but not below, the target blood pressure range” value in data set [1] (in vivo) is listed as 45.5%. The “Median time to reach target blood pressure range” value in data set [1] (patients in which the target range was achieved) was determined as 15 min. For the same compound, in data set [2] (human, in vivo), the “Duration of SBP <90 mmHg” value turned out to be 3.3 min; the “Patients who exceeded their lower target blood pressure range limit” value is listed as 15 patients; the “Patients with at least one related TEAE, %” value came out at 9.8%; the “Proportion of time that SBP was <90 mmHg while on study drug” value was determined as 2.5%. For the same compound, in data set [2] (human, in vivo), the “SBP <90 mmHg occurred, % of patients” value worked out at 5.9%; the “SBP <90 mmHg occurred, patients” value stood at 3 patients; the “Study drug related TEAE: Abdominal discomfort, %” value is on record as 2.0%; the “Study drug related TEAE: Abdominal pain, %” value is given as 2.0%. In data set [2] (human, in vivo), the “Study drug related TEAE: Blurred vision, %” value is listed as 2.0%; the “Study drug related TEAE: Flushing, %” value is on record as 2.0%; the “Study drug related TEAE: Headache, %” value was 2.0%; the “Study drug related TEAE: Myalgia, %” value stood at 2.0%. For the same compound, in data set [2] (human, in vivo), the “Study drug related TEAE: Nausea, %” value worked out at 2.0% and the “Study drug related TEAE: Ventricular tachycardia, %” value was found to be 2.0%. Also, the “Incidence of serious adverse events” value in data set [2] (human, in vivo, 30 days) was 23.5%. Moreover, in data set [2] (in vivo), the “Mean by which the lower target limit was exceeded” value is on record as 8.7 mmHg; the “Mean heart rate change from baseline to 30 minutes” value is reported as 2.6 bpm; the “Symptomatic hypotension, patients” value is “one”. Besides, the “Patients expired within 30 days of treatment” value in data set [2] (none during study drug administration) stood at 3 patients. Also, the “Mean VAS decrease from baseline” value in data set [3] (at 45 minutes, 100 mm dyspnea VAS) was determined as 37.1 mm. Besides, the “Effect on dyspnea compared with nicardipine” value in data set [3] (in vivo) is given as “significantly greater than the effect of nicardipine on dyspnea”. In data set [3] (vs SOC), the “VAS dyspnea scores over time (treatment×time effect)” value is listed as “decreased more from baseline with clevidipine than SOC”; the “VMAC and PDA scores” value was “non-significant trends toward greater improvement with clevidipine than SOC”. In data set [4], the Half-life result is “about 1 minute”.
With `O=[N+]([O-])OCC(CO[N+](=O)[O-])O[N+](=O)[O-]` [nitroglycerin], the “Speed of VAS improvement, SOC subsets” value in data set [3] (FIG. 2D, compared with clevidipine) is recorded as “neither nitroglycerin nor nicardipine improved VAS as quickly as clevidipine”.
